Test results taken from patent US20250280827A1, “An antifungal composition comprising natamycin and at least one insecticide” (priority 2021, published 2025).
Like-named read-outs stand apart in the source and are kept apart here.

Experiments:
Sclerotinia sclerotiorum = experiment: Antifungal effect against Sclerotinia sclerotiorum infection on wounded skin of broad bean pods (rot area, Colby synergy); format: in vivo
Text: (§1) The Colby equation (Colby, 1967. Weeds 15:20-22) calculates the expected antifungal activity (E in %) of a combination comprising more than one active ingredients:
(§2) wherein X and Y are the observed antifungal activities (in %) of the individual active ingredients x and y, respectively. If the observed antifungal activity (O in %) of the combination exceeds the expected antifungal activity (E in %) of the combination and the synergy factor O/E is thus >1.0, the combined application of the active ingredients leads to a synergistic antifungal effect.
• 1) Control (without natamycin and lambda-cyhalothrin) • 2) Natamycin at a level of 15 ppm • 3) Lambda-cyhalothrin (in the product KARATE ZEON® of Syngenta) at a levels of 0.15 ppm, 0.6 ppm, 3 ppm and 15 ppm • 4) Natamycin at a level of 15 ppm combined with lambda-cyhalothrin at levels of 0.15 ppm, 0.6 ppm, 3 ppm or 15 ppm.
Used pathogen: Sclerotinia sclerotiorum.
(§3) Application: The broad bean pods were washed under tap water, and were subsequently surface sterilized by placing them in a 0.1% sodium hypochlorite solution for 5 minutes. The pods were then rinsed with tap water and dried. Transparent plastic containers were prepared by placing a piece of absorbing paper in the container and adding 25 ml of water, one container per treatment was used. The pods were cut in two, and two halve pods were incubated per box. The skin of broad bean pods was damaged with a needle, ø 2 mm and to a depth of about 3 mm into the fruit, with—depending on the size of the pod—2 to 4 wounds per half pod. In total, 6 wounds were incubated per treatment, of which 1 was used as a control. A volume of 20 microliter of a natamycin/insecticide composition, as presented herein above, was applied by pipette to each wound. The treatments were then left to air-dry. Once dried, a mycelium plug of Sclerotinia sclerotiorum was placed upside down on each wound, so that the mycelium was in direct contact with the wound. Per treatment 5 wounds were inoculated with the fungus, while the 6th and last wound was used as negative non-inoculated control. After inoculation, the containers were directly closed with a transparent plastic lid.
All pods were kept at room temperature (20° C.). Wounds of the pods were checked after 30 h of incubation.
Replicates: All treatments for the broad bean pod experiment were performed on two individual pod halves resulting in 5 wounds per treatment, while a sixth wound served as control.
The experiments were performed as described in Example 1.
The experiments were performed as described in Example 1. Assessment of the infection area was 23 h after inoculation. Experiment was performed in 5-fold.
The experiments were performed as described in Example 1. Thiamethoxam belongs to IRAC Group 4. Assessment of the infection area was 31 hours after inoculation. Experiment was performed in 5-fold.
The experiments were performed as described in Example 1. The product SPECTRE® of company (Adama) containing the active ingredient chlorfenapyr belonging to IRAC Group 13 was tested. Assessment of the infection area was 23 hours after inoculation. Experiment was performed in 5-fold.

Fusarium graminerum = format: cell-based; conditions: 6 days after inoculation
Text: as §1, §2
(§4) Agar medium was prepared by mixing in a 100 ml Duran bottle 3.9 g of potato dextrose agar (PDA) from Carl-Roth (Carl-Roth GmbH+Co. KG, Karlsruhe, Germany) with 100 ml deionized water and autoclaving the Duran bottle at 120° C. for 15 minutes. After autoclaving, the solution was cooled by putting it in a 48° C. oven for about two hours. Afterward the semi-liquid PDA solution was carefully mixed with natamycin and/or insecticide dosages as specified in Table 5 showing the interaction results on petri dishes. The medium in the Duran bottle was divided over 5 petri dishes (90×15 mm), 20 ml per petri dish by using 25 ml serological pipets (ROTILABO®; Carl-Roth). Each natamycin and/or insecticide treatment was performed in fivefold.
(§5) Fungal spore suspensions were prepared by drenching a fully grown petri dish with sterile water. The fungus was scraped off and filtered through a Miracloth (pore size: 22-25 μm) (Merck KGaA, Darmstadt, Germany; catalogue number: 475855). The number of spores were counted with a hemocytometer and fungal suspension was adjusted to 10^6 spores per ml. Afterward, 5 μl of prepared spore suspension was pipetted on the center of the agar plate. The plates were incubated at 25° C. Measurement of the fungal growth was done using callipers at different time points. Assessment of the infection area was 6 days after inoculation.
(§6) The insecticide levels and the period after which the assessments were made are presented as specified for the different insecticides are presented in Table 5 below. Synergistic calculation was done using the Colby equation. Experiment was performed in 5-fold.
The experiments were performed as described in Example 3. The product KARATE ZEON® of company Syngenta containing the active ingredient lambda-cyhalothrin belonging to IRAC Group 3 was tested. Assessment of the infection area was 6 days after inoculation. Experiment was performed in 5-fold.

Fusarium culmorum = experiment: Antifungal effect against Fusarium culmorum on PDA petri dishes (fungal growth area, Colby synergy); format: cell-based
Text: as §1, §2, §4, §5, §6
The experiments were performed as described in Example 3. Assessment of the infection area was 6 days after inoculation. Experiment was performed in 5-fold.
The experiments were performed as described in Example 3. The product KARATE ZEON® of company Syngenta containing the active ingredient lambda-cyhalothrin belonging to IRAC Group 3 was tested. Assessment of the infection area was 3 days after inoculation. Experiment was performed in 5-fold.

Botrytis cinerea = experiment: Antifungal effect against Botrytis cinerea infection on wounded peel of banana fruits (Colby synergy); format: in vivo; conditions: 5 days after inoculation
Text: as §2, §3
The infection area was measured 5 days after inoculation.
A few changes were made for the banana experiments: 5 wounds per banana were made, on each wound 40 microliter of treatments was pipetted. The treatments were then left to air-dry. Once dried, 2 microliter of a freshly prepared inoculum was pipetted on four of the wounds. The inoculum consists of […] potato dextrose broth (PDB) medium containing Botrytis cinerea spores at a concentration of 10^6 spores per ml. The fifth wound was used as negative non-inoculated control. Experiment was performed in 4-fold.
Assessment of the infection area was performed 3 days after inoculation. Experiment was performed in 4-fold.
Imidacloprid was formulated as described in Table 2. Assessment of the efficacy was 5 days after inoculation. Experiment was performed in 4-fold.

[1] = natamycin-insecticide 0-0.15 ppm, 23 h after inoculation, Table 4
[2] = natamycin-insecticide 0-0.6 ppm, 23 h after inoculation, Table 4
[3] = natamycin-insecticide 0-3 ppm, 23 h after inoculation, Table 4
[4] = natamycin-insecticide 0-15 ppm, 23 h after inoculation, Table 4
[5] = natamycin-insecticide 0-0.05 ppm, Table 5
[6] = natamycin-insecticide 0-0.1 ppm, Table 5
[7] = natamycin-insecticide 0-0.2 ppm, Table 5
[8] = natamycin-insecticide 0-0.5 ppm, Table 5
[9] = natamycin-insecticide 0-0.05 ppm, 6 days after inoculation, Table 6
[10] = natamycin-insecticide 0-0.1 ppm, 6 days after inoculation, Table 6
[11] = natamycin-insecticide 0-0.2 ppm, 6 days after inoculation, Table 6
[12] = natamycin-insecticide 0-0.5 ppm, 6 days after inoculation, Table 6
[13] = natamycin-insecticide 0:0.004 ppm, Table 12B
[14] = natamycin-insecticide 0:0.01 ppm, Table 12A
[15] = natamycin-insecticide 0:0.04 ppm, Table 12A
[16] = natamycin-insecticide 0:1 ppm, Table 12A
[17] = natamycin-insecticide 0-0.15 ppm, 30 h after inoculation, Table 3
[18] = natamycin-insecticide 0-0.6 ppm, 30 h after inoculation, Table 3
[19] = natamycin-insecticide 0-3 ppm, 30 h after inoculation, Table 3
[20] = natamycin-insecticide 0-15 ppm, 30 h after inoculation, Table 3
[21] = natamycin-insecticide 0-0.1 ppm, Table 10
[22] = natamycin-insecticide 0-0.2 ppm, Table 10
[23] = natamycin-insecticide 0-0.5 ppm, Table 10
[24] = natamycin-insecticide 0-1 ppm, Table 10
[25] = natamycin-insecticide 0-0.05 ppm, 3 days after inoculation, Table 11
[26] = natamycin-insecticide 0-0.1 ppm, 3 days after inoculation, Table 11
[27] = natamycin-insecticide 0-0.2 ppm, 3 days after inoculation, Table 11
[28] = natamycin-insecticide 0-0.5 ppm, 3 days after inoculation, Table 11

With `CCOC(=O)/C=C(C)/C=C/CC(C)CCCC(C)C` (centres unmarked) [hydroprene] the Avg infected area (Sclerotinia sclerotiorum; [1]) was 99.3 mm2, the Observed antifungal activity (Sclerotinia sclerotiorum; [1]) was 36.6% and the Avg infected area (Sclerotinia sclerotiorum; [2]) was 103.1 mm2. It also gave an Observed antifungal activity (Sclerotinia sclerotiorum; [2]) of 34.2%, an Avg infected area (Sclerotinia sclerotiorum; [3]) of 74.5 mm2 and an Observed antifungal activity (Sclerotinia sclerotiorum; [3]) of 52.5%. It also gave an Avg infected area (Sclerotinia sclerotiorum; [4]) of 89 mm2, an Observed antifungal activity (Sclerotinia sclerotiorum; [4]) of 43.2% and an Avg infected area (Fusarium graminerum; [5]) of 1124 mm2. For the same compound, the Observed antifungal activity (Fusarium graminerum; [5]) was 1.0%, the Avg infected area (Fusarium graminerum; [6]) was 1142.1 mm2 and the Observed antifungal activity (Fusarium graminerum; [6]) was −0.6%. The Avg infected area (Fusarium graminerum; [7]) was 970.5 mm2, the Observed antifungal activity (Fusarium graminerum; [7]) was 14.5% and the Avg infected area (Fusarium graminerum; [8]) was 1055.1 mm2. For the same compound, the Observed antifungal activity (Fusarium graminerum; [8]) was 7.1%, the Avg infected area (Fusarium culmorum; [9]) was 934.7 mm2 and the Observed antifungal activity (Fusarium culmorum; [9]) was 6.4%. For the same compound, the Avg infected area (Fusarium culmorum; [10]) was 1010.5 mm2, the Observed antifungal activity (Fusarium culmorum; [10]) was −1.2% and the Avg infected area (Fusarium culmorum; [11]) was 1014.3 mm2. The Observed antifungal activity (Fusarium culmorum; [11]) was −1.6%, the Avg infected area (Fusarium culmorum; [12]) was 1060.2 mm2 and the Observed antifungal activity (Fusarium culmorum; [12]) was −6.2%.

For `CC1(C)[C@H](/C=C(\Cl)C(F)(F)F)[C@@H]1C(=O)O[C@@H](C#N)c1cccc(Oc2ccccc2)c1` [lambda-cyhalothrin, [(R)-cyano-(3-phenoxyphenyl)methyl] (1S,3S)-3-[(Z)-2-chloro-3,3,3-trifluoroprop-1-enyl]-2,2-dimethylcyclopropane-1-carboxylate], the Avg infected area (Botrytis cinerea; [13]) was 82.4 mm2, the Observed antifungal activity (Botrytis cinerea; [13]) was 16.6% and the Avg infected area (Botrytis cinerea; [14]) was 38.9 mm2. For the same compound, the Observed antifungal activity (Botrytis cinerea; [14]) was 39.0%, the Avg infected area (Botrytis cinerea; [15]) was 55.1 mm2 and the Observed antifungal activity (Botrytis cinerea; [15]) was 13.7%. It also gave an Avg infected area (Botrytis cinerea; [16]) of 41.8 mm2, an Observed antifungal activity (Botrytis cinerea; [16]) of 34.6% and an Avg infected area (Sclerotinia sclerotiorum; [17]) of 314.73 mm^2. The Observed antifungal activity (Sclerotinia sclerotiorum; [17]) was −0.1%, the Avg infected area (Sclerotinia sclerotiorum; [18]) was 325.88 mm^2 and the Observed antifungal activity (Sclerotinia sclerotiorum; [18]) was −3.7%. The Avg infected area (Sclerotinia sclerotiorum; [19]) was 350.24 mm^2, the Observed antifungal activity (Sclerotinia sclerotiorum; [19]) was −11.4% and the Avg infected area (Sclerotinia sclerotiorum; [20]) was 322.41 mm^2. It also gave an Observed antifungal activity (Sclerotinia sclerotiorum; [20]) of −2.5%, an Avg infected area (Fusarium graminerum; [21]) of 4846.2 mm2 and an Observed antifungal activity (Fusarium graminerum; [21]) of −34.1%. For the same compound, the Avg infected area (Fusarium graminerum; [22]) was 5071.1 mm2, the Observed antifungal activity (Fusarium graminerum; [22]) was −40.3% and the Avg infected area (Fusarium graminerum; [23]) was 4842.3 mm2. The Observed antifungal activity (Fusarium graminerum; [23]) was −34%, the Avg infected area (Fusarium graminerum; [24]) was 4714.2 mm2 and the Observed antifungal activity (Fusarium graminerum; [24]) was −30.4%. The Avg infected area (Fusarium culmorum; [25]) was 384.0 mm2, the Observed antifungal activity (Fusarium culmorum; [25]) was −5.9% and the Avg infected area (Fusarium culmorum; [26]) was 383.9 mm2. The Observed antifungal activity (Fusarium culmorum; [26]) was −5.8%, the Avg infected area (Fusarium culmorum; [27]) was 370.9 mm2 and the Observed antifungal activity (Fusarium culmorum; [27]) was −2.2%. For the same compound, the Avg infected area (Fusarium culmorum; [28]) was 381.7 mm2 and the Observed antifungal activity (Fusarium culmorum; [28]) was −5.2%.
